Patent US5155209A, “R-(+) enantiomeric form of 7-(2, 3-epoxypropoxy) actinomycin D” (priority 1991, dated 1992)
Numbered stars: 1 amine (or outer) side, 2 acyl side, 3 side chain; on linkers, the order of the positions; unused ones are H or OH. Bridge positions count the residues as written; N and C are the ends. Square brackets hold non-standard residues; d marks the D form. Peptide text beside a SMILES is read from it. I, II: the chains in the order shown. Actinocin(9to1) = Cc1c2oc3c(C)ccc(C(=O)[*:1])c3nc-2c(C(=O)[*:2])c(N)c1=O; NMeV = CN[C@H](C(=O)O)C(C)C; Sar = CNCC(=O)O

Assays:
Calf Thymus DNA = assay: Thermal denaturation (ΔTm) of DNA-drug complex; type: binding; conditions: 0.01 phosphate buffer pH 7.0, 5% Me2SO; in °C (unit assumed)
Description: ^a ΔTm = Tm of DNAdrug complex minus Tm of
drugfree DNA; concentration of drug 14.0 nM and that of DNA 70 nM in 0.01
phosphate buffer, pH 7.0, 5 × 10^3 EDTA and 5% Me2 SO.
DNA-binding experiments were carried out in 0.01M phosphate buffer (pH7), containing EDTA (10^-5 M).

purified calf thymus DNA = assay: Covalent and noncovalent (intercalative) binding to calf thymus DNA, [DNA base]/[drug] ratios; conditions: 20 mM Tris-HCl pH 7.4, 37° C.
Description: ^b Binding to purified calf thymus DNA in 20 mM TrisHCl, ph 7.4 buffe
at 37° C.; A values are molar ratios of DNA to drug based on the
total amount of drug that is bound both intercalatively and covalently to
^c B values are similar ratios assayed on the basis of drugs bound
entirely by covalent bonding to DNA base.

P388/ADR [1] = assay: Inhibition of growth in vitro of P388/ADR cells; type: cell-based, mouse; conditions: actively growing tumor cells
Description: (§1) The analogues are assayed for in vitro growth inhibitory activity against several experimental tumor lines including human and murine leukemia, mouse melanoma, and human lymphoblastic leukemia.

B16 = assay: Inhibition of growth in vitro of B16 cells; type: cell-based, mouse; conditions: actively growing tumor cells
Description: as §1

P388/ADR [2] = assay: Antitumor activity against ip implanted P388/ADR in CDF1 mice; type: in vivo; set-up: OD (optimal dose of drugs): unit not given here
Description: ^e Optimal dose of drugs.
^ f Median survival time of tumor bearing mice.
^g Percent increase in median life time in days of drugtreated dying
animals vs those of controls; (survivors), number of 60 days
survivors/number of animals tested in the group.
In order to examine a broader spectrum of activity, these optical isomers are tested in two other mouse leukemia cell lines in vivo. One cell line, P388/ADR, is a derivative of the above P388/S made resistant to intercalating agents like […].

[3] = system: DNA synthesis in L1210 cells; assay: Inhibition of DNA synthesis in L1210 ([methyl-14C]thymidine incorporation); type: cell-based, Murine; conditions: [methyl-14C]thymidine incorporation into DNA; read-out: inhibition of synthesis of nucleic acids in L1210 IC50 DNA
Description: (§2) ^a Drug concentration (micromolor) for 50% reduction of incorporation
(§3) of [methyl^14 C]thymidine into DNA^b and [5^3 H] uridine into
(§4) RNA^c from the rate of incorporation of the same radionucleotides in
(§5) nondrug treated L1210 cells growing actively in vitro.
(§6) Inhibition of nucleic acid synthesis in L1210 lymphoid leukemia cells by (±)-EPA and it optical isomers are assayed. […] To achieve this, a digestion of the nucleic acid pellet with DNase-free RNase enzyme, prior to final pelleting of the DNA precipitate is made to ensure that no more than ±8% contamination from […] into DNA takes place, and for this the necessary correction is made in the data reported in Table V.

[4] = system: RNA synthesis in L1210 cells; assay: Inhibition of RNA synthesis in L1210 ([5-3H]uridine incorporation); type: cell-based, Murine; conditions: [5-3H]uridine incorporation into RNA; read-out: inhibition of synthesis of nucleic acids in L1210 IC50 RNA
Description: as §2, §3, §4, §5, §6

L1210 cells = assay: Inhibition of growth of L1210 cells in culture; type: cell-based, Murine
Description: as §1

leukemia L1210 = assay: Activity in mice bearing leukemia L1210; type: in vivo; conditions: L1210 ip in CDF1 mouse
Source text: ^e OD, optimal dose of drugs in milligrams/killograms per injection,
administered ip on days 1, 5, and 9, following ip inoculation with
^f % ILS, percent increase in median life span in days, of the
tumorbearing drugtreated dying animals when compared with similar tumor
bearing mice but not treated with drugs. (surv), number of over 60 days
survivors/number of animals tested.

B16 melanoma [5] = assay: B16 melanoma implanted sc, drug iv (sc-iv) in BDF1 mice; type: in vivo
Description: (§7) Subcutaneously implanted B16 melanoma in BDF1 mice is a slow growing tumor, but its rate of growth becomes faster when it is implanted ip. […] This is not consistent with data in other tumors; however, in this connection it should be pointed out that the combined effects of drugs (or enantiomers in this case) can be manifested in several ways, i.e., they can be synergistic, additive, or subtractive.
(§8) 0.2 ml of brei (tumor weight/Hank's balanced salt solution, (1:5) of B16
(§9) implanted sc or ip into groups of nine BDF1 mice on day 0. Drugs
(§10) administered iv on day 1 or ip on days 1, 5, and 9, following tumor
(§11) administered ip on days 1, 5, and 9. OD, optimal dose in
(§12) milligrams/milliliter of vehicle, and administered iv or ip in 0.1 mL of
(§13) vehicle (5% v/v Me2 SOsaline). MST, median survival times in days of
(§14) tumor bearing and nondrug treated (control) or drugtreated mice. % ILS,
(§15) percent increase in life span of drug treated groups over the control
(§16) group of test animals, excluding survivors. (surv), number of sixty day
(§17) survivors/number of mice treated with drug.

B16 melanoma [6] = assay: B16 melanoma implanted ip, drug ip (ip-ip) in BDF1 mice; type: in vivo
Description: as §7, §8, §9, §10, §11, §12, §13, §14, §15, §16, §17

C26 colon carcinoma = C26 colon carcinoma implanted in CDF1 mice, drug ip; type: in vivo
Description: implantation. Primary colon C26 carcinoma (tripan blue excluding, 2.5
× 10^5 cells/mouse) implanted in CDF1 mice on day 0; drug
as §11, §12, §13, §14, §15, §16, §17

CCRF-CEM = assay: In vitro growth inhibition of CCRF-CEM human lymphoblastic leukemia cells; type: cell-based; conditions: purer (90%) form of isomers
Description: as §1

[7] = cited from earlier work
[8] = ip days 1, 5, 9, at optimal dose
[9] = B16 sc implanted, drug iv day 1
[10] = B16 ip implanted, drug ip days 1, 5, 9

In the case of `Cc1c2oc3c(C)ccc(C(=O)N[C@@H]4C(=O)N[C@H](C(C)C)C(=O)N5CCC[C@H]5C(=O)N(C)CC(=O)N(C)[C@@H](C(C)C)C(=O)O[C@@H]4C)c3nc-2c(C(=O)N[C@@H]2C(=O)N[C@H](C(C)C)C(=O)N3CCC[C@H]3C(=O)N(C)CC(=O)N(C)[C@@H](C(C)C)C(=O)O[C@@H]2C)c(N)c1=O` [1b(AMD), Actinomycin D] (I: T[dV]P[Sar][NMeV] / II: T[dV]P[Sar][NMeV]; ester I:1-I:C, II:1-II:C; linker I:N-II:N via Actinocin(9to1)), the “Tm (ΔTm = Tm of DNA-drug complex minus Tm of drug-free DNA)” value (Calf Thymus DNA) is reported as 7.1 ± 0.15, the “[DNA base]/[drug] A: molar ratio of DNA to drug, total drug bound intercalatively and covalently” value (purified calf thymus DNA) is reported as 26 ± 2 and the “inhibition of growth ID50 P388/ADR” value (P388/ADR [1]) is reported as 2500 ± 250 nM. The “inhibition of growth ID50 B16” value (B16) was 3.0 ± 1.0 nM, the “% ILS (percent increase in median life time vs controls)” value (P388/ADR [2]; ip qd 1-9, at optimal dose) was 33% and the “(surv) number of 60 days survivors/number of animals tested” value (P388/ADR [2]; ip qd 1-9, at optimal dose) was 0/10. The “MST (median survival time)” value (P388/ADR [2]; ip qd 1-9, at optimal dose) was 12 days, the “OD (optimal dose of drugs)” value (P388/ADR [2]; treated ip qd 1-9) was 0.075 and the IC50 [3] was 380 ± 28 nM. The IC50 [4] was 19 ± 6 nM, the “inhibition of growth of L1210 cells in culture; ID50” value (L1210 cells) was 60.1 ± 9.8 nM and the “OD (optimal dose)” value (leukemia L1210; ip days 1, 5, 9) was 0.025 milligrams/killograms per inje. For the same compound, the “% ILS (percent increase in median life span)” value (leukemia L1210; [8]) was 55%, the “(surv) number of over 60 days survivors/number of animals tested” value (leukemia L1210; [8]) was 0/9 and the “% ILS” value (B16 melanoma [5]; [9]) was 36%. For the same compound, the “(surv) sixty day survivors/number of mice treated” value (“(surv) sixty day survivors/number” below) (B16 melanoma [5]; [9]) was 0/9, the “MST (median survival time)” value (B16 melanoma [5]; [9]) was 45.0 days and the “OD (optimal dose)” value (B16 melanoma [5]; B16 sc implanted, drug iv day 1, 0.1 mL vehicle) was 0.9 milligrams/milliliter of vehic. For the same compound, the “activity against sc implanted B16 tumor, in words” value (B16 melanoma [5]; iv administered) was “only marginally active”, the “% ILS” value (B16 melanoma [6]; [10]) was 52% and the “(surv) sixty day survivors/number” value (B16 melanoma [6]; [10]) was 0/9. For the same compound, the “MST (median survival time)” value (B16 melanoma [6]; [10]) was 29.0 days, the “OD (optimal dose)” value (B16 melanoma [6]; B16 ip implanted, drug ip days 1, 5, 9, 0.1 mL vehicle) was 0.25 milligrams/milliliter of vehic and the “activity against ip implanted B16 tumor, in words” value (B16 melanoma [6]; ip administered) was “only moderately active”. The “% ILS” value (C26 colon carcinoma; drug ip days 1, 5, 9) was 52%, the “(surv) sixty day survivors/number” value (C26 colon carcinoma; drug ip days 1, 5, 9) was 0/10 and the “MST” value (C26 colon carcinoma; drug ip days 1, 5, 9) was 33.5 days. The “OD (optimal dose)” value (C26 colon carcinoma; drug ip days 1, 5, 9, 0.1 mL vehicle) was 0.30 milligrams/milliliter of vehic, the “50% growth inhibitory dose (ID50)” value (CCRF-CEM) was 12.5 nM and the metabolism in vivo [7] was “not metabolized in vivo”.
